Measured values as given in patent US6608069B1, “Phenyl xanthine derivatives” (SmithKline Beecham Corporation, priority 1998, dated 2003).

Tests used:
[1] = system: cytokine-stimulated human umbilical vein endothelial cells; experiment: Cell Adhesion Assay: adherence of fluorescently-labelled leukocytes to endothelial cell monolayers; type: cell-based; settings: inhibition of cytokine-stimulated adhesion minus basal adhesion; calcein-AM labelled leukocytes on HUVEC monolayers
Summary of the method: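 HUVEC monolayers were stimulated with cytokine, and adhesion of calcein-AM-labelled leukocytes was quantified by fluorescence. Inhibition was calculated on cytokine-stimulated adhesion after subtracting basal adhesion of unstimulated cells.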

male Lewis rats = experiment: Carrageenan Pleurisy Assay; type: in vivo; settings: carrageenan 0.075 mg/rat, harvested four hours after carrageenan; for % Inhibition Cells: inflammatory cells (neutrophils) in pleural exudate vs vehicle control; for % Inhibition Exudate: pleural edema (exudate) vs vehicle control
Description: 2) Carrageenan Pleurisy Assay
The antiinflammatory activity of compounds of the invention was determined by the procedure of Vinegar, R, et al., Proc. Soc. Exp. Biol. Med., 1981, 168, 24-32, using male Lewis rats of 150±20 grams. The carrageenan dose was 0.075 mg/rat. Pleural exudate was harvested four hours after injection of carrageenan. Acute antiinflammatory activity was determined by inhibition of pleural edema and inflammatory cells (neutrophils) from a negative (vehicle) control group.

SMILES | IC50 [1] [nM] | % Inhibition Cells (male Lewis rats) [%] | % Inhibition Exudate (male Lewis rats) [%]
CCCn1c(=O)n(CC2CCCCC2)c(=O)c2nc(-c3ccc(/C=C/C(=O)NCCOCCOCCOCCOCCOCCOCCOCCOCCOC)cc3)[nH]c21 [Example 74, (E)-4-((1-cyclohexylmethyl-3-propyl)-1,2,3,6-tetrahydro-2,6-dioxo-9H-purin-8-yl)cinnamic Acid Nonaethylene Glycol Methyl Ether Amide] | 360 ± 160 | 85 | 70
COCCOCCOCCOCCOCCOCCOCCOCCOCCOC(=O)/C=C/c1ccc(-c2nc3c(c(=O)n(CC4CCCCC4)c(=O)n3CC3CCCCC3)n2C)cc1 [Example 79, (E)-4-(1,3-Bis(cyclohexylmethyl)-2,3,6,7-tetrahydro-2,6-dioxo-7-methyl-1H-purin-8-yl)cinnamic Acid Nonaethylene Glycol Methyl Ether Ester] | 3 ± 1 | 55 | 7
